Reference: patent publication US20100120789A1, “Compound” (priority 2005, published 2010)

melting point [°C] | SMILES
121 to 125 | O=C(CC12CC3CC(CC(C3)C1)C2)N1CCc2sccc2C1
88 to 91 | CN(Cc1cccs1)C(=O)C12CC3CC(CC(O)(C3)C1)C2
59 to 60 | CN(CCc1ccccn1)C(=O)CC12CC3CC(CC(C3)C1)C2
187 to 188 | O=C(CC12CC3CC(CC(C3)C1)C2)NCc1ccc(-c2ccccn2)s1
66 to 68 | CN(Cc1cn(C23CC4CC(CC(C4)C2)C3)nn1)Cc1cccs1
198 to 199 | O=S(=O)(Cc1cn(C23CC4CC(CC(C4)C2)C3)nn1)c1cc(Cl)ccc1Cl
201 to 203 | CN(CC(=O)C12CC3CC(CC(C3)C1)C2)Cc1cccs1.Cl
144 to 145 | COc1cc2c(cc1OCc1ccccc1)CCN(C(=O)C13CC4CC(CC(C4)C1)C3)C2
133 to 135 | COc1cc2c(cc1OCc1ccccc1)CCN(C(=O)CC13CC4CC(CC(C4)C1)C3)C2
224 to 228 | COc1cc2c(cc1O)CCN(C(=O)C13CC4CC(CC(C4)C1)C3)C2
169 to 172 | COc1cc2c(cc1O)CCN(C(=O)CC13CC4CC(CC(C4)C1)C3)C2
151 to 155 | COc1cc2c(cc1OC)CN(C(=O)C13CC4CC(CC(C4)C1)C3)CC2
165 to 167 | COc1cc2c(cc1OC)CN(C(=O)CC13CC4CC(CC(C4)C1)C3)CC2
116 to 120 | Cc1nc2cc(NCC(=O)C3(C)CC3)ccc2s1
150 to 153 | O=C(NCc1ccc(Cl)cc1)C12CC3CC(CC(C3)C1)C2
137 to 140 | Cc1ccc(CNC(=O)C23CC4CC(CC(C4)C2)C3)cc1
166 to 168 | O=C(CC12CC3CC(CC(C3)C1)C2)NCc1ccc(Cl)cc1
139 to 142 | Cc1ccc(CNC(=O)CC23CC4CC(CC(C4)C2)C3)cc1
75 to 76 | CN(Cc1ccc(Cl)cc1)C(=O)CC12CC3CC(CC(C3)C1)C2
103 to 105 | CCN(Cc1cccs1)C(=O)C12CC3CC(CC(C3)C1)C2
112 to 115.5 | O=C(N(Cc1cccs1)CC1CCCCC1)C12CC3CC(CC(C3)C1)C2
134 to 136 | O=C(CC12CC3CC(CC(C3)C1)C2)N1CCN(c2ccccn2)CC1
156 to 158 | CC(C)N(Cc1cccs1)C(=O)C12CC3CC(CC(C3)C1)C2
51 to 53 | CN(Cc1cccs1)C(=O)CSC12CC3CC(CC(C3)C1)C2

melting point [°C] | SMILES
141.5 to 143 | O=C(N1CCN(Cc2ccc(Cl)cc2)CC1)C12CC3CC(CC(C3)C1)C2
185 to 187 | Cc1cccc(CN2CCN(C(=O)C34CC5CC(CC(C5)C3)C4)CC2)c1
73 to 75.5 | CSc1ccc(CN(C)C(=O)C23CC4CC(CC(C4)C2)C3)s1
120 to 122 | CN(Cc1cccs1)C(=O)CS(=O)(=O)C12CC3CC(CC(C3)C1)C2
126 to 129 | Cc1cccc(NC(=O)CS(=O)(=O)C23CC4CC(CC(C4)C2)C3)n1
211 to 211.5 | CNC(=O)c1ccc(CN(C)C(=O)C23CC4CC(CC(C4)C2)C3)s1
123 to 124 | Cc1c(C(=O)CSCc2ccc(Cl)cc2)sc2ccc(Cl)cc12
145 to 146 | CN(C)C(=O)c1ccc(CN(C)C(=O)C23CC4CC(CC(C4)C2)C3)s1
173.5 to 175.5 | CC(=O)Nc1ccc([S+]([O-])CC(=O)C23CC4CC(CC(C4)C2)C3)cc1 (stereo not shown)
155.5 to 157 | Cc1ccc(CNC(=O)C2CCN(C(=O)C34CC5CC(CC(C5)C3)C4)CC2)cc1
127.7 | CC(C)(C)c1ccc(CS(=O)(=O)CC(=O)C23CC4CC(CC(C4)C2)C3)cc1
132.8 | Cc1cccc(CS(=O)(=O)CC(=O)C23CC4CC(CC(C4)C2)C3)c1
128.7 | COC(=O)c1ccc(OCC(=O)C23CC4CC(CC(C4)C2)C3)cc1
84.5 | COC(=O)c1cccc(OCC(=O)C23CC4CC(CC(C4)C2)C3)c1
145.6 | O=C(NCc1ccccc1)c1ccc(OCC(=O)C23CC4CC(CC(C4)C2)C3)cc1
88.7 | COC(=O)c1ccc(COCC(=O)C23CC4CC(CC(C4)C2)C3)cc1
184.3 | O=C(Nc1ccccc1)c1ccc(OCC(=O)C23CC4CC(CC(C4)C2)C3)cc1
162.2 | O=C(NCc1ccco1)c1ccc(OCC(=O)C23CC4CC(CC(C4)C2)C3)cc1
73.5 to 75 | CN(Cc1ccc(Cl)s1)C(=O)CC12CC3CC(CC(C3)C1)C2
98 to 100 | O=C(CC12CC3CC(CC(C3)C1)C2)N1CCN(C(=O)c2ccco2)CC1
204 to 206 | CC(=O)Nc1ccc(OCC(=O)C23CC4CC(CC(C4)C2)C3)cc1Cl
153.4 | O=C(Cc1ccc(OCC(=O)C23CC4CC(CC(C4)C2)C3)cc1)Nc1ccccc1
197 to 198 | O=S(=O)(NCC12CC3CC(CC(C3)C1)C2)c1cc(Cl)ccc1Cl [STX1369, N-Adamantan-1-ylmethyl-2,5-dichloro-benzenesulfonamide]

SMILES | melting point [°C]
CCCc1ccc(S(=O)(=O)NC23CC4CC(CC(C4)C2)C3)cc1 [STX1341, N-Adamantan-1-yl-4-propyl-benzenesulfonamide] | 178 to 178.5
O=S(=O)(NC12CC3CC(CC(C3)C1)C2)c1cc(Cl)ccc1Cl [STX1342, N-Adamantan-1-yl-2,5-dichloro-benzenesulfonamide] | 189 to 190
Cc1c(Cl)cccc1S(=O)(=O)NC12CC3CC(CC(C3)C1)C2 [STX1343, N-Adamantan-1-yl-3-chloro-2-methyl-benzenesulfonamide] | 197.5 to 198
O=S(=O)(NC12CC3CC(CC(C3)C1)C2)c1ccc(-c2ccccc2)cc1 [STX1344, Biphenyl-4-sulfonic acid adamantan-1-ylamide] | 205 to 205.5
CCCc1ccc(S(=O)(=O)NCC23CC4CC(CC(C4)C2)C3)cc1 [STX1368, N-Adamantan-1-ylmethyl-4-propyl-benzenesulfonamide] | 148 to 149
Cc1c(Cl)cccc1S(=O)(=O)NCC12CC3CC(CC(C3)C1)C2 [STX1370, N-Adamantan-1-ylmethyl-3-chloro-2-methyl-benzenesulfonamide] | 183 to 184
O=S(=O)(NCC12CC3CC(CC(C3)C1)C2)c1ccc(-c2ccccc2)cc1 [STX1371, Biphenyl-4-sulfonic acid (adamantan-1-ylmethyl)-amide] | 188 to 189.5
Cc1nc2c(NC(=O)C34CC5CC(CC(C5)C3)C4)c(C)ccc2s1 [STX1372, Adamantane-1-carboxylic acid (2,5-dimethyl-benzothiazol-4-yl)-amide] | 183.5 to 185
Cc1nc2c(Cl)c(NC(=O)C34CC5CC(CC(C5)C3)C4)ccc2s1 [STX1373, Adamantane-1-carboxylic acid (4-chloro-2-methyl-benzothiazol-5-yl)-amide] | 183.5 to 185.5
O=C(NCc1cccs1)C12CC3CC(CC(C3)C1)C2 [STX1374, Adamantane-1-carboxylic acid (thiophen-2-ylmethyl)-amide] | 155 to 155.5
O=C(NCCc1cccs1)C12CC3CC(CC(C3)C1)C2 [STX1375, Adamantane-1-carboxylic acid (2-thiophen-2-yl-ethyl)-amide] | 123 to 126
